Key:
Experiment in all cases: relative viability (nuclei count vs DMSO), 5 days (fraction); higher = more cells survive
VE-821 + OSI-027 = compound: CS(=O)(=O)c1ccc(-c2cnc(N)c(C(=O)Nc3ccccc3)n2)cc1 [VE-821] + COc1cccc2cc(-c3nc([C@H]4CC[C@H](C(=O)O)CC4)n4ncnc(N)c34)[nH]c12 [OSI-027] (partner 0.5 µM)
How it was run: (§1)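 Lung cancer cell lines in 1536-well plates got either a single drug or a fixed anchor-drug dose together with five library-drug doses (not always all listed) in √10 steps, by pin tool, on the day after seeding. Nuclei were counted after 5 days, and relative viability is the treated-to-vehicle ratio of nuclei counts. Values are medians of duplicate plates.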

Vismodegib + Tozasertib = compound: CS(=O)(=O)c1ccc(C(=O)Nc2ccc(Cl)c(-c3ccccn3)c2)c(Cl)c1 [Vismodegib] + Cc1cc(Nc2cc(N3CCN(C)CC3)nc(Sc3ccc(NC(=O)C4CC4)cc3)n2)n[nH]1 [Tozasertib] (partner 0.1 µM)
How it was run: as §1

Ruxolitinib + Crizotinib = compound: N#CC[C@H](C1CCCC1)n1cc(-c2ncnc3[nH]ccc23)cn1 [Ruxolitinib] + C[C@@H](Oc1cc(-c2cnn(C3CCNCC3)c2)cnc1N)c1c(Cl)ccc(F)c1Cl [Crizotinib] (partner 1 µM)
How it was run: as §1

Ruxolitinib + Vorinostat = compound: N#CC[C@H](C1CCCC1)n1cc(-c2ncnc3[nH]ccc23)cn1 [Ruxolitinib] + O=C(CCCCCCC(=O)Nc1ccccc1)NO [Vorinostat] (partner 1 µM)
How it was run: as §1

Cell Line: NCI-H1734
- relative viability (VE-821 + OSI-027; first compound 0.08 µM): 0.701
- relative viability (VE-821 + OSI-027; first compound 0.253 µM): 0.529
- relative viability (VE-821 + OSI-027; first compound 0.8 µM): 0.599
- relative viability (VE-821 + OSI-027; first compound 2.53 µM): 0.529
- relative viability (VE-821 + OSI-027; first compound 8 µM): 0.331
- relative viability (Vismodegib + Tozasertib; first compound 0.08 µM): 0.249
- relative viability (Vismodegib + Tozasertib; first compound 0.253 µM): 0.281
- relative viability (Vismodegib + Tozasertib; first compound 0.8 µM): 0.267
- relative viability (Vismodegib + Tozasertib; first compound 2.53 µM): 0.263
- relative viability (Vismodegib + Tozasertib; first compound 8 µM): 0.263
- relative viability (Ruxolitinib + Crizotinib; first compound 0.08 µM): 0.66
- relative viability (Ruxolitinib + Crizotinib; first compound 0.253 µM): 0.721
- relative viability (Ruxolitinib + Crizotinib; first compound 0.8 µM): 0.795
- relative viability (Ruxolitinib + Crizotinib; first compound 2.53 µM): 0.633
- relative viability (Ruxolitinib + Crizotinib; first compound 8 µM): 0.559
- relative viability (Ruxolitinib + Vorinostat; first compound 0.08 µM): 0.886
- relative viability (Ruxolitinib + Vorinostat; first compound 0.253 µM): 0.806
- relative viability (Ruxolitinib + Vorinostat; first compound 0.8 µM): 0.902
- relative viability (Ruxolitinib + Vorinostat; first compound 2.53 µM): 0.797
- relative viability (Ruxolitinib + Vorinostat; first compound 8 µM): 0.863

Cell Line: SK-LU-1
- relative viability (VE-821 + OSI-027; first compound 0.08 µM): 0.316
- relative viability (VE-821 + OSI-027; first compound 0.253 µM): 0.316
- relative viability (VE-821 + OSI-027; first compound 0.8 µM): 0.312
- relative viability (VE-821 + OSI-027; first compound 2.53 µM): 0.268
- relative viability (VE-821 + OSI-027; first compound 8 µM): 0.193
- relative viability (Vismodegib + Tozasertib; first compound 0.08 µM): 0.269
- relative viability (Vismodegib + Tozasertib; first compound 0.253 µM): 0.348
- relative viability (Vismodegib + Tozasertib; first compound 0.8 µM): 0.295
- relative viability (Vismodegib + Tozasertib; first compound 2.53 µM): 0.347
- relative viability (Vismodegib + Tozasertib; first compound 8 µM): 0.361
- relative viability (Ruxolitinib + Crizotinib; first compound 0.08 µM): 1.01
- relative viability (Ruxolitinib + Crizotinib; first compound 0.253 µM): 1
- relative viability (Ruxolitinib + Crizotinib; first compound 0.8 µM): 1.08
- relative viability (Ruxolitinib + Crizotinib; first compound 2.53 µM): 0.847
- relative viability (Ruxolitinib + Crizotinib; first compound 8 µM): 0.584
- relative viability (Ruxolitinib + Vorinostat; first compound 0.08 µM): 0.763
- relative viability (Ruxolitinib + Vorinostat; first compound 0.253 µM): 0.856
- relative viability (Ruxolitinib + Vorinostat; first compound 0.8 µM): 0.747
- relative viability (Ruxolitinib + Vorinostat; first compound 2.53 µM): 0.805
- relative viability (Ruxolitinib + Vorinostat; first compound 8 µM): 0.53

Cell Line: NCI-H3122
- relative viability (VE-821 + OSI-027; first compound 0.08 µM): 1.01
- relative viability (VE-821 + OSI-027; first compound 0.253 µM): 0.958
- relative viability (VE-821 + OSI-027; first compound 0.8 µM): 1
- relative viability (VE-821 + OSI-027; first compound 2.53 µM): 1.08
- relative viability (VE-821 + OSI-027; first compound 8 µM): 0.758
- relative viability (Vismodegib + Tozasertib; first compound 0.08 µM): 0.399
- relative viability (Vismodegib + Tozasertib; first compound 0.253 µM): 0.382
- relative viability (Vismodegib + Tozasertib; first compound 0.8 µM): 0.343
- relative viability (Vismodegib + Tozasertib; first compound 2.53 µM): 0.384
- relative viability (Vismodegib + Tozasertib; first compound 8 µM): 0.373
- relative viability (Ruxolitinib + Crizotinib; first compound 0.08 µM): 0.332
- relative viability (Ruxolitinib + Crizotinib; first compound 0.253 µM): 0.269
- relative viability (Ruxolitinib + Crizotinib; first compound 0.8 µM): 0.282
- relative viability (Ruxolitinib + Crizotinib; first compound 2.53 µM): 0.312
- relative viability (Ruxolitinib + Crizotinib; first compound 8 µM): 0.282
- relative viability (Ruxolitinib + Vorinostat; first compound 0.08 µM): 0.886
- relative viability (Ruxolitinib + Vorinostat; first compound 0.253 µM): 1.12
- relative viability (Ruxolitinib + Vorinostat; first compound 0.8 µM): 1.13
- relative viability (Ruxolitinib + Vorinostat; first compound 2.53 µM): 0.962
- relative viability (Ruxolitinib + Vorinostat; first compound 8 µM): 1.02

Cell Line: NCI-H522
- relative viability (VE-821 + OSI-027; first compound 0.08 µM): 0.718
- relative viability (VE-821 + OSI-027; first compound 0.253 µM): 0.779
- relative viability (VE-821 + OSI-027; first compound 0.8 µM): 0.76
- relative viability (VE-821 + OSI-027; first compound 2.53 µM): 0.65
- relative viability (VE-821 + OSI-027; first compound 8 µM): 0.677
- relative viability (Vismodegib + Tozasertib; first compound 0.08 µM): 0.534
- relative viability (Vismodegib + Tozasertib; first compound 0.253 µM): 0.508
- relative viability (Vismodegib + Tozasertib; first compound 0.8 µM): 0.529
- relative viability (Vismodegib + Tozasertib; first compound 2.53 µM): 0.548
- relative viability (Vismodegib + Tozasertib; first compound 8 µM): 0.577
- relative viability (Ruxolitinib + Vorinostat; first compound 0.08 µM): 0.949
- relative viability (Ruxolitinib + Vorinostat; first compound 0.253 µM): 0.868
- relative viability (Ruxolitinib + Vorinostat; first compound 0.8 µM): 0.978
- relative viability (Ruxolitinib + Vorinostat; first compound 2.53 µM): 0.873
- relative viability (Ruxolitinib + Vorinostat; first compound 8 µM): 0.859

Cell Line: NCI-H1792
- relative viability (VE-821 + OSI-027; first compound 0.08 µM): 0.725
- relative viability (VE-821 + OSI-027; first compound 0.253 µM): 0.786
- relative viability (VE-821 + OSI-027; first compound 0.8 µM): 0.608
- relative viability (VE-821 + OSI-027; first compound 2.53 µM): 0.447
- relative viability (VE-821 + OSI-027; first compound 8 µM): 0.484
- relative viability (Ruxolitinib + Crizotinib; first compound 0.08 µM): 1.01
- relative viability (Ruxolitinib + Crizotinib; first compound 0.253 µM): 0.893
- relative viability (Ruxolitinib + Crizotinib; first compound 0.8 µM): 0.946
- relative viability (Ruxolitinib + Crizotinib; first compound 2.53 µM): 0.753
- relative viability (Ruxolitinib + Crizotinib; first compound 8 µM): 0.85

Cell Line: Calu-6
- relative viability (Ruxolitinib + Crizotinib; first compound 0.08 µM): 0.797
- relative viability (Ruxolitinib + Crizotinib; first compound 0.253 µM): 0.676
- relative viability (Ruxolitinib + Crizotinib; first compound 0.8 µM): 1
- relative viability (Ruxolitinib + Crizotinib; first compound 2.53 µM): 0.711
- relative viability (Ruxolitinib + Crizotinib; first compound 8 µM): 0.399

Cell Line: IA-LM
- relative viability (Ruxolitinib + Crizotinib; first compound 0.08 µM): 0.886
- relative viability (Ruxolitinib + Crizotinib; first compound 0.253 µM): 1.05
- relative viability (Ruxolitinib + Crizotinib; first compound 0.8 µM): 0.791
- relative viability (Ruxolitinib + Crizotinib; first compound 2.53 µM): 0.849
- relative viability (Ruxolitinib + Crizotinib; first compound 8 µM): 0.638
- relative viability (Ruxolitinib + Vorinostat; first compound 0.08 µM): 0.896
- relative viability (Ruxolitinib + Vorinostat; first compound 0.253 µM): 1.12
- relative viability (Ruxolitinib + Vorinostat; first compound 0.8 µM): 1.17
- relative viability (Ruxolitinib + Vorinostat; first compound 2.53 µM): 0.929
- relative viability (Ruxolitinib + Vorinostat; first compound 8 µM): 1.19

Cell Line: NCI-H1793
- relative viability (VE-821 + OSI-027; first compound 0.08 µM): 0.247
- relative viability (VE-821 + OSI-027; first compound 0.253 µM): 0.305
- relative viability (VE-821 + OSI-027; first compound 0.8 µM): 0.232
- relative viability (VE-821 + OSI-027; first compound 2.53 µM): 0.272
- relative viability (VE-821 + OSI-027; first compound 8 µM): 0.242
- relative viability (Vismodegib + Tozasertib; first compound 0.253 µM): 0.336
- relative viability (Vismodegib + Tozasertib; first compound 0.8 µM): 0.393
- relative viability (Vismodegib + Tozasertib; first compound 2.53 µM): 0.269
- relative viability (Vismodegib + Tozasertib; first compound 8 µM): 0.279
- relative viability (Ruxolitinib + Vorinostat; first compound 0.08 µM): 0.832
- relative viability (Ruxolitinib + Vorinostat; first compound 0.253 µM): 0.87
- relative viability (Ruxolitinib + Vorinostat; first compound 0.8 µM): 0.823
- relative viability (Ruxolitinib + Vorinostat; first compound 2.53 µM): 0.877
- relative viability (Ruxolitinib + Vorinostat; first compound 8 µM): 0.872

Cell Line: NCI-H1395
- relative viability (VE-821 + OSI-027; first compound 0.08 µM): 0.684
- relative viability (VE-821 + OSI-027; first compound 0.253 µM): 0.605
- relative viability (VE-821 + OSI-027; first compound 0.8 µM): 0.607
- relative viability (VE-821 + OSI-027; first compound 2.53 µM): 0.639
- relative viability (VE-821 + OSI-027; first compound 8 µM): 0.484
- relative viability (Vismodegib + Tozasertib; first compound 0.08 µM): 0.823
- relative viability (Vismodegib + Tozasertib; first compound 0.253 µM): 0.771
- relative viability (Vismodegib + Tozasertib; first compound 0.8 µM): 0.71
- relative viability (Vismodegib + Tozasertib; first compound 2.53 µM): 0.667
- relative viability (Vismodegib + Tozasertib; first compound 8 µM): 0.81
- relative viability (Ruxolitinib + Vorinostat; first compound 0.08 µM): 0.577
- relative viability (Ruxolitinib + Vorinostat; first compound 0.253 µM): 0.506
- relative viability (Ruxolitinib + Vorinostat; first compound 0.8 µM): 0.743
- relative viability (Ruxolitinib + Vorinostat; first compound 2.53 µM): 0.717
- relative viability (Ruxolitinib + Vorinostat; first compound 8 µM): 0.654

Cell Line: NCI-H1648
- relative viability (VE-821 + OSI-027; first compound 0.08 µM): 0.291
- relative viability (VE-821 + OSI-027; first compound 0.253 µM): 0.25
- relative viability (VE-821 + OSI-027; first compound 0.8 µM): 0.244
- relative viability (VE-821 + OSI-027; first compound 2.53 µM): 0.246
- relative viability (VE-821 + OSI-027; first compound 8 µM): 0.239
- relative viability (Vismodegib + Tozasertib; first compound 0.08 µM): 0.395
- relative viability (Vismodegib + Tozasertib; first compound 0.253 µM): 0.461
- relative viability (Vismodegib + Tozasertib; first compound 0.8 µM): 0.348
- relative viability (Vismodegib + Tozasertib; first compound 2.53 µM): 0.427
- relative viability (Vismodegib + Tozasertib; first compound 8 µM): 0.562
- relative viability (Ruxolitinib + Vorinostat; first compound 0.08 µM): 0.331
- relative viability (Ruxolitinib + Vorinostat; first compound 0.253 µM): 0.408
- relative viability (Ruxolitinib + Vorinostat; first compound 0.8 µM): 0.984
- relative viability (Ruxolitinib + Vorinostat; first compound 2.53 µM): 0.748
- relative viability (Ruxolitinib + Vorinostat; first compound 8 µM): 0.895

Cell Line: NCI-H1703
- relative viability (Ruxolitinib + Crizotinib; first compound 0.08 µM): 0.643
- relative viability (Ruxolitinib + Crizotinib; first compound 0.253 µM): 0.611
- relative viability (Ruxolitinib + Crizotinib; first compound 0.8 µM): 0.832
- relative viability (Ruxolitinib + Crizotinib; first compound 2.53 µM): 0.497
- relative viability (Ruxolitinib + Crizotinib; first compound 8 µM): 0.241

Cell Line: NCI-H1299
- relative viability (Ruxolitinib + Crizotinib; first compound 0.08 µM): 0.981
- relative viability (Ruxolitinib + Crizotinib; first compound 0.253 µM): 0.909
- relative viability (Ruxolitinib + Crizotinib; first compound 0.8 µM): 0.973
- relative viability (Ruxolitinib + Crizotinib; first compound 2.53 µM): 0.839
- relative viability (Ruxolitinib + Crizotinib; first compound 8 µM): 0.704

Reference: the supplement of paper PMC10307832
